This passage reports IC50 results from patent US11407736B2 (priority 2019, dated 2022).

One assay has as its system U937 cells. Description: U937 cell necroptosis assay (TNFa + zVAD, CellTiter-Glo). The format is cell-based, human. The settings on record: Homo sapiens. The method in brief:
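Necroptosis was induced with TNFa at 2 ng/mL final for 18 h at 37 °C, following 1 h compound pre-incubation in the presence of zVAD-fmk (60 uM for U937 plating medium, 40 uM for L929 medium). Luminescent CellTiter-Glo signal gave relative cell survival.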

Another assay addresses RIPK1 (Homo sapiens (Human), UniProt Q13546). Kind of assay: RIPK1 ADP-Glo biochemical kinase assay. The protocol:
The final reaction volume was 5.0ul.
Adding 5 μl of ADP-Glo™ terminated the reaction.
Background: In ADP-Glo the light output rises with the ADP produced.

In the next assay the test system is L929 cells. Description: L929 cell necroptosis assay (TNFa + zVAD, CellTiter-Glo). The class given is cell-based, murine. The essentials:
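Necroptosis was read as CellTiter-Glo luminescence 18 hours after TNFa stimulation at 37° C, 5% CO2. Prior to that, L929 cells (10K/well, plated 18 h) received fresh medium with 40 uM zVAD-fmk plus 4-fold serially diluted compound.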
For orientation: In ATP-based viability assays light output follows the ATP content of the culture.

Where [1] appears, read: U-937, U937 cells, TNFa + zVAD, read-out: U937 Zvad TNF CTG Recovery, U937, TNFa + zVAD (IC50).
The mark [2] stands for this setting: read-out: RIPK1 ADP-Glo Kinase (IC50).
Where [3] appears, read: Mus musculus, L929, L929 cells, TNFa + zVAD, read-out: L929-CTG-recovery, L929, TNFa + zVAD (IC50).

Molecules are shown by their SMILES. Like-named read-outs stand apart in the source and are kept apart here.

Sequence of RIPK1 (Q13546 whole entry, species assumed): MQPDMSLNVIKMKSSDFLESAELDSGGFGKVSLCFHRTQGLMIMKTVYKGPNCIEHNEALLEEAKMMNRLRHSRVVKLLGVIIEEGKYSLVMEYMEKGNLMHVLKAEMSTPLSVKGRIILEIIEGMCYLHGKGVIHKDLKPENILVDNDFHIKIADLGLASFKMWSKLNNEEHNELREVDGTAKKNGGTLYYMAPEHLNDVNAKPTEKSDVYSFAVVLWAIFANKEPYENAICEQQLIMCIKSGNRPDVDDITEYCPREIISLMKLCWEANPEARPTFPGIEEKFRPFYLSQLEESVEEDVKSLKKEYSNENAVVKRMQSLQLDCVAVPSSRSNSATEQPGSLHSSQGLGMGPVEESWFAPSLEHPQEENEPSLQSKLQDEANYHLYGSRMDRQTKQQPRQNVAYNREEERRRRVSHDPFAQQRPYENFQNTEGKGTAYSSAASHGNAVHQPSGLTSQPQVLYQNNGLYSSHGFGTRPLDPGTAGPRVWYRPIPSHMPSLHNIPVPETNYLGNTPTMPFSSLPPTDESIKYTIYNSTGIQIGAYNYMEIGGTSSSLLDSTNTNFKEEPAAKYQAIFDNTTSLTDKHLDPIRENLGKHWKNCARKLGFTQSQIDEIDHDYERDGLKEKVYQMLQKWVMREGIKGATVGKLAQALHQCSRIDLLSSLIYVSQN

Regarding `CN1C(=O)[C@@H](NC(=O)c2n[nH]c(Cc3ccccc3)n2)COc2ccc(CCC(=O)N3CCOCC3)cc21` [Compound I-11, (S)-5-benzyl-N-(5-methyl-7-(3-morpholino-3-oxopropyl)-4-oxo-2,3,4,5-tetrahydrobenzo[b][1,4]oxazepin-3-yl)-1H-1,2,4-triazole-3-carboxamide], the figures for the IC50 in the assay with U937 cells (setting [1]), at RIPK1 (setting [2]) and in the assay with L929 cells (setting [3]) were 8.1 nM, 57.1 nM and 14100 nM, respectively.

Turning to `CN1C(=O)[C@@H](NC(=O)n2cc(Cc3ccc(F)cc3)cn2)COc2ccc(C#CC(C)(C)N)cc21` [Compound I-226, (S)—N-(7-(3-amino-3-methylbut-1-yn-1-yl)-5-methyl-4-oxo-2,3,4,5-tetrahydrobenzo[b][1,4]oxazepin-3-yl)-4-(4-fluorobenzyl)-1H-pyrazole-1-carboxamide], the values for the half-maximal inhibitory concentration (IC50) with U937 cells (setting [1]), on RIPK1 (setting [2]) and in the assay with L929 cells (setting [3]) were 17 nM, 33 nM and 1770 nM, respectively.

On to `CN1C(=O)[C@@H](NC(=O)n2cc(Cc3ccc(F)cc3F)cn2)COc2ccc(Br)cc21` [Compound I-237, (S)—N-(7-Bromo-5-methyl-4-oxo-2,3,4,5-tetrahydrobenzo[b][1,4]oxazepin-3-yl)-4-(2,4-difluorobenzyl)-1H-pyrazole-1-carboxamide], for which the values for the IC50 with U937 cells (setting [1]), against RIPK1 and with L929 cells (setting [3]) were 135 nM, 43.1 nM and 15500 nM, respectively.

Take `CN1C(=O)[C@@H](NC(=O)c2ncn(Cc3ccccc3)n2)COc2ccc(C#CC3(O)COC3)cc21` [Compound I-58, (S)-1-benzyl-N-(7-((3-hydroxyoxetan-3-yl)ethynyl)-5-methyl-4-oxo-2,3,4,5-tetrahydrobenzo[b][1,4]oxazepin-3-yl)-1H-1,2,4-triazole-3-carboxamide]: the IC50 (usually the concentration at which inhibition is half-maximal) stood at 0.8 nM with U937 cells (setting [1]), 11 nM at RIPK1 (setting [2]) and 0.2 nM in the assay with L929 cells (setting [3]).

`CN1C(=O)[C@@H](NC(=O)n2cc(Cc3ccc(F)cc3)cn2)COc2ccc(C#CC3(O)CC4(CCC4)C3)cc21` [Compound I-224, (S)-4-(4-Fluorobenzyl)-N-(7-((2-hydroxyspiro[3.3]heptan-2-yl)ethynyl)-5-methyl-4-oxo-2,3,4,5-tetrahydrobenzo[b][1,4]oxazepin-3-yl)-1H-pyrazole-1-carboxamide]: the IC50 with U937 cells (setting [1]) stood at 1.5 nM; on RIPK1 (setting [2]), 312 nM; with L929 cells (setting [3]), 220 nM.

Consider `CN1C(=O)[C@@H](NC(=O)c2n[nH]c(Cc3ccccc3)n2)COc2ccc(C#CC(C)(C)C)cc21` [Compound I-49, (S)-5-benzyl-N-(7-(3,3-dimethylbut-1-yn-1-yl)-5-methyl-4-oxo-2,3,4,5-tetrahydrobenzo[b][1,4]oxazepin-3-yl)-1H-1,2,4-triazole-3-carboxamide], for which the IC50 turned out to be 5 nM in the assay with U937 cells (setting [1]), 60.4 nM on RIPK1 (setting [2]) and 1.2 nM with L929 cells (setting [3]).

In the case of `CC(C)CCc1ccc2c(c1)N(C)C(=O)[C@@H](NC(=O)c1n[nH]c(Cc3ccccc3)n1)CO2` [Compound I-60, (S)-5-benzyl-N-(7-isopentyl-5-methyl-4-oxo-2,3,4,5-tetrahydrobenzo[b][1,4]oxazepin-3-yl)-1H-1,2,4-triazole-3-carboxamide], the values for the IC50 in the assay on U937 cells (setting [1]), on RIPK1 (setting [2]) and in the assay on L929 cells (setting [3]) were 4.8 nM, 64.4 nM and 2.4 nM, respectively.

Take `CN1C(=O)[C@@H](NC(=O)c2cc(Oc3ccccc3)ccn2)COc2ccc(C#CC(C)(C)C)cc21` [II-25, (S)—N-(7-(3,3-dimethylbut-1-yn-1-yl)-5-methyl-4-oxo-2,3,4,5-tetrahydrobenzo[b][1,4]oxazepin-3-yl)-4-phenoxypicolinamide]: the IC50 in the assay with U937 cells (U-937, read-out: U937 Zvad TNF CTG Recovery, U937, TNFa + zVAD (IC50), U937 cells, TNFa + zVAD) came out at 2.4 nM; on RIPK1 (setting [2]) it was 226 nM; in the assay with L929 cells (Mus musculus, L929, read-out: L929-CTG-recovery, L929, TNFa + zVAD (IC50), L929 cells, TNFa + zVAD), 202 nM.

Take `CC(C)Cn1cnc(C(=O)N[C@H]2COc3ccc(C#CC(C)(C)O)cc3N(C)C2=O)n1` [Compound I-85, (S)—N-(7-(3-hydroxy-3-methylbut-1-yn-1-yl)-5-methyl-4-oxo-2,3,4,5-tetrahydrobenzo[b][1,4]oxazepin-3-yl)-1-isobutyl-1H-1,2,4-triazole-3-carboxamide]: the IC50 in the assay on U937 cells (setting [1]) came out at 3.3 nM; at RIPK1 (setting [2]), 42.3 nM; in the assay on L929 cells (setting [3]), 0.6 nM.

`CN1C(=O)[C@@H](NC(=O)c2cc(Cc3ccccc3)on2)COc2ccc(C#CC(C)(C)O)cc21` [Compound I-87, (S)-5-benzyl-N-(7-(3-hydroxy-3-methylbut-1-yn-1-yl)-5-methyl-4-oxo-2,3,4,5-tetrahydrobenzo[b][1,4]oxazepin-3-yl)isoxazole-3-carboxamide]: the half-inhibitory concentration (IC50) in the assay on U937 cells (setting [1]) was found to be 138 nM; at RIPK1 (setting [2]), 18.7 nM; with L929 cells (setting [3]) it was 29.2 nM.

For the molecule `CN1C(=O)[C@@H](NC(=O)c2cc(Oc3ccccc3)ccn2)COc2ccc(C#Cc3cn(C)cn3)cc21` [Compound I-203, (S)—N-(5-methyl-7-((1-methyl-1H-imidazol-4-yl)ethynyl)-4-oxo-2,3,4,5-tetrahydrobenzo[b][1,4]oxazepin-3-yl)-4-phenoxypicolinamide], the IC50 in the assay on U937 cells (setting [1]) came to 0.4 nM; on RIPK1 (setting [2]) it was 23.4 nM; with L929 cells (setting [3]), 4 nM.

On to `CN1C(=O)[C@@H](NC(=O)n2cc(Cc3ccc(F)cc3)cn2)COc2ccc(C#CC(C)(C)O)cc21` [Compound I-218, (S)-4-(4-fluorobenzyl)-N-(7-(3-hydroxy-3-methylbut-1-yn-1-yl)-5-methyl-4-oxo-2,3,4,5-tetrahydrobenzo[b][1,4]oxazepin-3-yl)-1H-pyrazole-1-carboxamide], for which the values for the half-maximal inhibitory concentration (IC50) in the assay with U937 cells (setting [1]), on RIPK1 (setting [2]) and in the assay with L929 cells (setting [3]) were 2.6 nM, 24.5 nM and 75.8 nM, respectively.

Turning to `CN1C(=O)[C@@H](NC(=O)c2cc(Oc3ccccc3)ccn2)COc2ccc(C#CC3(OC(=O)CCC(=O)O)COC3)cc21` [Compound I-147, (S)-4-((3-((5-methyl-4-oxo-3-(4-phenoxypicolinamido)-2,3,4,5-tetrahydrobenzo[b][1,4]oxazepin-7-yl)ethynyl)oxetan-3-yl)oxy)-4-oxobutanoic acid], the IC50 in the assay on U937 cells (setting [1]) was 1.2 nM; at RIPK1 (setting [2]) it was 17.3 nM; in the assay on L929 cells (L929 cells, TNFa + zVAD, read-out: L929-CTG-recovery, L929, TNFa + zVAD (IC50)), 154 nM.

Regarding `CN1C(=O)[C@@H](NC(=O)n2cc(Cc3ccc(F)cc3F)cn2)COc2ccc(C#CC(C)(C)CNC(=O)OC(C)(C)C)cc21` [Compound I-240, Tert-butyl (S)-(4-(3-(4-(2,4-difluorobenzyl)-1H-pyrazole-1-carboxamido)-5-methyl-4-oxo-2,3,4,5-tetrahydrobenzo[b][1,4]oxazepin-7-yl)-2,2-dimethylbut-3-yn-1-yl)carbamate], the half-maximal inhibitory concentration (IC50) in the assay on U937 cells (setting [1]) was determined as 15.1 nM; on RIPK1 it was 265 nM; in the assay on L929 cells (setting [3]), 944 nM.

Take `CN1C(=O)[C@@H](NC(=O)c2ncn(Cc3c(Cl)cccc3Cl)n2)COc2ccc(CCC(=O)N3CCCC3)cc21` [Compound I-18, (S)-1-(2,6-dichlorobenzyl)-N-(5-methyl-4-oxo-7-(3-oxo-3-(pyrrolidin-1-yl)propyl)-2,3,4,5-tetrahydrobenzo[b][1,4]oxazepin-3-yl)-1H-1,2,4-triazole-3-carboxamide]: the IC50 in the assay with U937 cells (setting [1]) came out at 1.3 nM; at RIPK1 (setting [2]) it was 164 nM; in the assay with L929 cells (setting [3]), 280 nM.

`CN1C(=O)[C@@H](NC(=O)c2cc(Oc3ccc(F)cc3F)ccn2)COc2ccc(C#CC3(O)COC3)cc21` [Compound I-114, (S)-4-(2,4-difluorophenoxy)-N-(7-((3-hydroxyoxetan-3-yl)ethynyl)-5-methyl-4-oxo-2,3,4,5-tetrahydrobenzo[b][1,4]oxazepin-3-yl)picolinamide]: the IC50 with U937 cells (setting [1]) is 4.7 nM; at RIPK1 (setting [2]) it was 20.2 nM; in the assay on L929 cells (setting [3]), 90.4 nM.

As to `CN1C(=O)[C@@H](NC(=O)c2n[nH]c(Cc3ccccc3)n2)COc2ccc(C#C[C@@]3(O)CO[C@@H]4[C@@H](O)CO[C@@H]43)cc21` [Compound I-75, 5-benzyl-N—((S)-7-(((3R,3aS,6S,6aR)-3,6-dihydroxyhexahydrofuro[3,2-b]furan-3-yl)ethynyl)-5-methyl-4-oxo-2,3,4,5-tetrahydrobenzo[b][1,4]oxazepin-3-yl)-1H-1,2,4-triazole-3-carboxamide], the IC50 in the assay on U937 cells (setting [1]) was found to be 8.3 nM; at RIPK1 (setting [2]), 54.6 nM; in the assay on L929 cells (setting [3]), 1.4 nM.

Take `CN1C(=O)[C@@H](NC(=O)n2cc(Cc3ccccc3)cn2)COc2ccc(N3CC4(CCOCC4)C3)cc21` [Compound I-217, (S)-4-Benzyl-N-(5-methyl-4-oxo-7-(7-oxa-2-azaspiro[3.5]nonan-2-yl)-2,3,4,5-tetrahydrobenzo[b][1,4]oxazepin-3-yl)-1H-pyrazole-1-carboxamide]: the IC50 in the assay with U937 cells (setting [1]) was found to be 0.5 nM; against RIPK1, 23.9 nM; in the assay on L929 cells (setting [3]), 597 nM.

As to `Cc1cccc(C)c1Cn1cnc(C(=O)N[C@H]2COc3ccc(C#CC(C)(C)O)cc3N(C)C2=O)n1` [Compound I-84, (S)-1-(2,6-dimethylbenzyl)-N-(7-(3-hydroxy-3-methylbut-1-yn-1-yl)-5-methyl-4-oxo-2,3,4,5-tetrahydrobenzo[b][1,4]oxazepin-3-yl)-1H-1,2,4-triazole-3-carboxamide], the figures for the IC50 with U937 cells (setting [1]), on RIPK1 (setting [2]) and in the assay on L929 cells (setting [3]) were 56.3 nM, 44.1 nM and 12.2 nM, respectively.
